Laboratory results from patent US12448414B2, “Antimicrobial peptide (AMP) for controlling Pseudomonas syringae pv. actinidiae (PSA) and preparation method and use thereof” (Anhui Agricultural University, priority 2023, dated 2025).
“Also recorded” adds a separate entry of the source. Like-named read-outs stand apart in the source and are kept apart here. No end group written: not given here.

Experiments:
PSA [1] = experiment: MIC determination by broth microdilution; assay type: cell-based, Pseudomonas syringae pv. actinidiae; settings: PSA 10^5 CFU/mL, LB, 28° C., 24 h, OD600
Procedure: The MIC was determined by a broth microdilution method (Mishra et al., 2017, Individual and combined effects of engineered peptides and antibiotics on Pseudomonas aeruginosa biofilms). PSA cells in a logarithmic growth phase were diluted to 10^5 colony forming units (CFU)/mL with an LB liquid medium (including 10 g/L peptone, 5 g/L yeast extract powder, and 10 g/L NaCl), and added into a 96-well microplate that was preloaded with different concentrations of the AMP synthesized in Example 1 (1.56 μg/mL to 200 μg/mL) or agricultural streptomycin (AS) (125 μg/mL to 4,000 μg/mL). After incubation at 28° C. for 24 h, an absorbance at 600 nm (OD600) of each sample was measured using a Multiskan FC microplate reader (Thermo Fisher Scientific, Waltham, USA); while sterile water was used as a control.

PSA [2] = experiment: Control effect and bacterial load on kiwifruit leaves inoculated with PSA; assay type: in vivo, Pseudomonas syringae pv. actinidiae on kiwifruit; settings: 1 MIC; for disease control effect: kiwifruit leaves inoculated with PSA, lesion area vs control; for bacterial load in leaves: kiwifruit leaves, 96 h
Procedure: The method of Bai et al. (2022, Application of phage therapy against red-fleshed kiwifruit canker) was selected to evaluate a control effect of the AMP synthesized in Example 1 on kiwifruit leaves inoculated with PSA. The leaves were injured with a syringe needle and covered with a filter paper (ϕ=1 cm) containing 50 μL of PSA (10^8 CFU/mL). After 2 h, 1 MIC of AMP or AS was added; while the PBS was used as a control. The kiwifruit plants were cultured for 96 h at 25±1° C., 70±5% relative humidity (RH), and a photoperiod of 16 h: 8 h. The lesion area and the number of colonies were counted every 48 h, and the disease control effect (%) was calculated using the following formula: Control effect (%)=(1−Lesion areatreatment/Lesion areacontrol)×100%
Bacterial load in leaves was determined according to a colony count method of Barrett-Manako et al. (2021, Real-time PCR and droplet digital PCR are accurate and reliable methods to quantify Pseudomonas syringae pv. actinidiae biovar 3 in kiwifruit infected plantlets). Leaves were collected, washed with sterile water, and homogenized with PBS. A homogenate was inoculated into a King's B solid medium (supplemented with nitrofurantoin at 12.5 μg/mL and cephalexin at 40 μg/mL). After incubation at 28° C. for 48 h, the colonies were counted to calculate lg CFU/cm^2. Colonies were confirmed by PCR using specific primers for the 16S-23SrDNA-ITS sequence of PSA (Table 1), and sequenced.

PSA [3] = assay type: cell-based, Pseudomonas syringae pv. actinidiae
Procedure: The samples in the wells with a concentration of greater than 1 MIC during the MIC determination in step 1 were spread on an LB agar plate (including 10 g/L peptone, 5 g/L yeast extract powder, 10 g/L NaCl, and 15 g/L agar), and the colonies were counted after incubation at 28° C. for 48 h.

PSA cells [4] = experiment: Membrane depolarization with DiSC3(5); assay type: cell-based, Pseudomonas syringae pv. actinidiae; settings: 1 MIC, 28° C., 30 min
Procedure: Membrane depolarization was measured using a membrane potential-sensitive cyano dye 3,3′-dipropylthiadicarbocyanine iodide (DiSC3(5)) according to a method of Juba et al. (2015, Helical cationic antimicrobial peptide length and its impact on membrane disruption). PSA cells (10^7 CFU/mL) were suspended in a PBS containing 50 μg/mL of the DiSC3(5) and added to a black 96-well microplate. The microplate was incubated in a SpectraMax i3 microplate reader (Molecular Devices, San Jose, USA), and monitored until fluorescence leveled off. 1 MIC of the AMP synthesized in Example 1 was added and incubated at 28° C. for 30 min; while the PBS was used as a control. The fluorescence intensity of each sample was measured at excitation/emission wavelengths of 622 nm/670 nm, respectively.

PSA [5] = assay type: cell-based, Pseudomonas syringae pv. actinidiae; settings: 3 h
Procedure: The EC50 was determined according to a method of Gupta et al. (2015, Short, synthetic cationic peptides have antibacterial activity against Mycobacterium smegmatis by forming pores in membrane and synergizing with antibiotics). The PSA cells (10^5 CFU/mL) in a logarithmic growth phase were added to a 96-well microplate that was preloaded with different concentrations of the AMP synthesized in Example 1 (0.39 μg/mL to 12.5 μg/mL) or AS (62.5 μg/mL to 2,000 μg/mL), and then incubated at 28° C. for 3 h. A serially diluted mixture was spread on the LB agar plate, incubated for 48 h, and the colonies were counted. The EC50 was calculated by plotting percent killing as a function of the lg of AMP concentrations.

[6] = tested on: DNA replication (dnaA and dnaB) and DNA repair (recA and recN) genes; experiment: RT-qPCR of DNA replication and repair genes; assay type: cell-based, Pseudomonas syringae pv. actinidiae; settings: 1 MIC, 28° C., 2 h
Procedure: PSA cells (10^7 CFU/mL) were incubated with 1 MIC of the AMP synthesized in Example 1 at 28° C. for 2 h. At the same time, sterile water was set as a control. A total RNA was extracted, and cDNA was synthesized using PrimeScript RT Master Mix (Takara, Dalian, China). The expression of DNA replication (dnaA and dnaB) and DNA repair (recA and recN) genes were detected by reverse transcription-quantitative PCR (RT-qPCR). The RT-qPCR was conducted with a mixed system including 10 μL of Masser Mix (Tsinke, Beijing, China), 0.8 μL of each primer (0.5 μM), 0.4 μL (200 ng) of the cDNA, and 8 μL of water. The reaction was conducted by: at 50° C. for 2 min; initial denaturation at 95° C. for 2 min; and at 95° C. for 15 sec, at 55° C. for 30 sec, and at 72° C. for 30 sec, conducting 40 cycles. 16S rRNA was used as a reference gene. A relative expression level of genes was calculated by a 2-AACT method.

PSA cells [7] = experiment: Calcium ion leakage of PSA cells; assay type: cell-based, Pseudomonas syringae pv. actinidiae; settings: after 120 min of treatment; increased from 8.70 μM
PSA cell membrane = experiment: Membrane permeabilization (OD260 of filtrates); assay type: cell-based, Pseudomonas syringae pv. actinidiae; settings: 1 MIC, 120 min, relative to Triton X-100; increased from 2.61%
Procedure: Membrane permeabilization was determined according to a method of Dang et al. (2020, Antimicrobial peptides from the edible insect Musca domestica and their preservation effect on chilled pork). PSA cells (10^7 CFU/mL) in a logarithmic growth phase were incubated with 1 MIC of the AMP synthesized in Example 1 at 28° C. for 120 min. The resulting cultures were filtered through a 0.22 μm membrane and OD260 value of the filtrates were determined. 10 mM of a phosphate-buffered saline (PBS) and Triton X-100 were used as negative and positive controls, respectively. The membrane permeabilization was calculated according to the following formula: Permeabilization (%)=(OD260 AMP/OD260 Triton)×100%.

[8] = tested on: intracellular esterase of PSA; experiment: Intracellular esterase activity (FDA fluorescence); assay type: cell-based, Pseudomonas syringae pv. actinidiae; settings: 1 MIC, at 120 min
Procedure: The intracellular esterase activity of PSA was measured with fluorescein diacetate (FDA). PSA cells (10^7 CFU/mL) were added to a black 96-well microplate preloaded with 1 MIC of the AMP synthesized in Example 1. The cells in each well were mixed with 10 mM of the FDA and incubated at 28° C. for 10 min. Fluorescence intensity was measured at excitation wavelengths of 480 nm/530 nm using the SpectraMax i3 microplate reader (Molecular Devices, San Jose, USA), respectively.

PSA cells [9] = experiment: ROS level (DCFH-DA fluorescence); assay type: cell-based, Pseudomonas syringae pv. actinidiae
Procedure: The reactive oxygen species (ROS) level of PSA treated with the AMP synthesized in Example 1 was evaluated using a ROS detection kit (LabLead, Beijing, China). PSA cells (10^7 CFU/mL) were incubated with different concentrations of the AMPs (0.5 MIC to 2 MICs) at 28° C. for 2 h. At the same time, sterile water was set as a control. The cells were resuspended in PBS and then incubated with 10 μM of 2′,7′-dichlorodihydrofluorescein diacetate (DCFH-DA) for 30 min at 28° C. Fluorescence intensity was measured at excitation/emission wavelengths of 485 nm/525 nm using a SpectraMax i3 microplate reader (Molecular Devices, San Jose, USA).

PSA [10] = experiment: Drug resistance of PSA to the AMP (repeated subculture, MIC change); assay type: cell-based, Pseudomonas syringae pv. actinidiae; settings: repeated treatment at 0.75, 1 and 1.25 MIC, 14 d
Procedure: Microbial resistance was determined according to a method of Steczko et al. (2009, Microbial inactivation properties of a new antimicrobial/antithrombotic catheter lock solution (citrate/methylene blue/parabens)). 10^5 CFU/mL of a PSA bacteria solution was treated with AMPs at final concentrations of 0.75 MIC, 1 MIC, and 1.25 MIC. After 24 h of incubation, the MIC was determined by microdilution assay. Subculture and MIC determination were conducted by the same method every day for a total of 14 d. The drug resistance of PSA was evaluated by observing changes of the MIC.

PSA cells [11] = experiment: SEM and TEM observation of PSA cells; assay type: cell-based, Pseudomonas syringae pv. actinidiae; settings: 1 MIC, 2 h, 28° C.
Procedure: Scanning electron microscopy (SEM) and Transmission electron microscopy (TEM) were used to observe the morphological and intracellular changes of the PSA cells treated with the AMP synthesized in Example 1. PSA cells (10^7 CFU/mL) were incubated with the AMP (1 MIC) for 2 h at 28° C.; while sterile water was used as a control. For SEM, cell samples were prepared according to a protocol of Juba et al. (2015, Helical cationic antimicrobial peptide length and its impact on membrane disruption) and observed under a Hitachi SU8100 SEM (Tokyo, Japan). For TEM, cell samples were prepared according to a method of Nguyen et al. (2021, Comparison of two transmission electron microscopy methods to visualize drug-induced alterations of gram-negative bacterial morphology) and observed under a Hitachi HT-7700 TEM (Tokyo, Japan).

PSA genomic DNA = experiment: DNA gel retardation; assay type: binding, Pseudomonas syringae pv. actinidiae; settings: 200 ng DNA, 15.63 ng to 1,000 ng AMP, 28° C., 30 min
Procedure: A PSA genomic DNA (200 ng) was incubated with different amounts of the AMP (15.63 ng to 1,000 ng) synthesized in Example 1 at 28° C. for 30 min. At the same time, sterile water was set as a control. After electrophoresis, DNA gel retardation was observed under UV illumination using a Bio-Rad Universal Hood II Gel Doc XR system (Hercules, USA).

[12] = tested on: defense genes (PR1 and PR-10); experiment: RT-qPCR of defense genes in kiwifruit leaves; assay type: in vivo; settings: PSA-inoculated kiwifruit leaves, 48 h
Procedure: The expression of defense genes (PRI and PR-10) in kiwifruit leaves was detected by RT-qPCR. The leaves were collected 48 h after AMP inoculation with PSA, and a total RNA was extracted from three leaf discs for each replicate, and cDNA was synthesized. The RT-qPCR was conducted using the method in Example 4. Actin was used as a reference gene. […] A relative expression level of genes was calculated by a 2-AACT method.

agricultural streptomycin [AS, reference compound]
MIC (PSA [1]): 500 µg/mL
disease control effect (PSA [2]): 55.80%
bacterial load in leaves (PSA [2]): 4.48 lg CFU/cm^2
MBC (PSA [3]; LB agar plate, 28° C., 48 h colony count): 1,000 μg/mL

WWKLLRKL-NH2 [AMP, Trp-Trp-Lys-Leu-Leu-Arg-Lys-Leu-NH2]
MIC (PSA [1]): 3.13 µg/mL
membrane depolarization (DiSC3(5) fluorescence) (PSA cells [4]): significantly induced an increase in DiSC3 (5) fluorescence
EC50 (PSA [5]): 1.67 µg/mL
reduction of dnaA expression level vs control [6]: 80.64%
reduction of dnaB expression level vs control [6]: 57.51%
reduction of recA expression level vs control [6]: 35.28%
reduction of recN expression level vs control [6]: 39.23%
calcium ion leakage (PSA cells [7]): 60.87 µM
permeabilization of the PSA cell membrane (PSA cell membrane): 11.44%
esterase (FDA) fluorescence intensity relative to control [8]: 0.34 times that of the control
ROS fluorescence intensity, dose dependence (PSA cells [9]; 0.5 MIC to 2 MICs): increased in a dose-dependent manner
ROS fluorescence intensity relative to control (PSA cells [9]; 2 MIC, 28° C., 2 h): 4.22 times that of the control
drug resistance of PSA (change of MIC) (PSA [10]): no drug resistance of PSA to AMP is observed; also recorded: no change was found in the MIC
disease control effect (PSA [2]): 70.53%
bacterial load in leaves (PSA [2]): 2.95 lg CFU/cm^2
cell morphology and intracellular changes (SEM/TEM) (PSA cells [11]): notable alterations in cell morphology
MBC (PSA [3]; 48 h): 6.25 µg/mL
binding with PSA genomic DNA (gel retardation) (PSA genomic DNA): bind to the genomic DNA of PSA and retard the migration of DNA in a concentration-dependent manner
expression level of PR 1 relative to control [12]: 1.38 times that of the control group
expression level of PR-10 relative to control [12]: 1.74 times that of the control
